These are literature values, as cited in patent US6942970B2, “Identifying subjects suitable for topoisomerase II inhibitor treatment” (Zymed Laboratories, Inc., priority 2000, dated 2005).

In the data set the test system is advanced breast cancer. Particulars: first-line chemotherapy, advanced breast cancer patients.

As to `COc1cccc2c1C(=O)c1c(O)c3c(c(O)c1C2=O)C[C@@](O)(C(=O)CO)C[C@@H]3O[C@H]1C[C@H](N)[C@@H](O)[C@H](C)O1` [epirubicin], the “response rate (CR+PR)” value was 48%.
